Values quoted from earlier work, collected in US20070149500A1, “Compounds, compositions, and methods” (priority 2003, published 2007).

Tested on: A549 cells
Conditions: data provided by National Cancer Institute

For `O=c1[nH]cc(F)c(=O)[nH]1` [5-fluorouracil], the GI50 is given as 1000 nM.

For `NC(=O)NO` [hydroxyurea], the GI50 is listed as 500000 nM.

In the case of `CC(=O)O[C@H]1C(=O)[C@@]2(C)[C@H]([C@H](OC(=O)c3ccccc3)[C@]3(O)C[C@H](OC(=O)[C@H](O)[C@@H](NC(=O)c4ccccc4)c4ccccc4)C(C)=C1C3(C)C)[C@]1(OC(C)=O)CO[C@@H]1C[C@@H]2O` [paclitaxel], the GI50 is given as 4 nM.
